Test results taken from a compilation of properties of binary mixtures (doi:10.1016/j.fluid.2015.06.043).

Experiment: xn = mol fraction of the nth substance listed
Conditions: 101 kPa

CC[n+]1ccccc1.O=S(=O)([O-])C(F)(F)F + O
viscosity [mPa·s]
Conditions | 293.15 K | 298.15 K | 303.15 K | 313.15 K | 323.15 K | 333.15 K | 343.15 K | 353.15 K
x1 = 0.067 | – | – | 1.9 | 1.5 | 1.22 | 1.02 | – | –
x1 = 0.183 | 5.3 | 4.6 | 4.03 | 3.16 | 2.55 | 2.1 | 1.76 | –
x1 = 0.498 | 17.7 | – | 13 | 9.96 | 7.86 | 6.34 | 5.24 | 4.41
x1 = 0.689 | 33.4 | 27.8 | 23.5 | – | 13.26 | 10.46 | – | 6.92
x1 = 0.893 | 65.7 | 53.2 | 43.7 | 30.8 | 22.5 | 17.1 | 13.4 | –
x1 = 1 | 75.2 | 60.6 | 48.8 | 33.8 | 24.5 | 18.2 | 14.05 | 11.13

O + CC[n+]1ccccc1.O=S(=O)([O-])C(F)(F)F
x2 = 0
Conditions | viscosity [mPa·s]
298.15 K | 0.89
303.15 K | 0.8
313.15 K | 0.65
333.15 K | 0.47
343.15 K | 0.4

CC[n+]1ccccc1.O=S(=O)([N-]S(=O)(=O)C(F)(F)F)C(F)(F)F + O
viscosity [mPa·s]
Conditions | 283.15 K | 293.15 K | 298.15 K | 303.15 K | 313.15 K | 333.15 K | 343.15 K | 353.15 K
x2 = 0.0043 | 78.6 | 49.9 | 40.1 | 33.3 | 24 | 13.7 | 10.88 | –
x2 = 0.087 | 64.3 | 41.7 | – | 28.4 | 20.6 | 12.15 | – | 7.92
